Experimental data as given in BindingDB's records for doi:10.1016/j.bmcl.2010.10.094 (Universit&#224, 2010).

target: carbonic anhydrase XII (human); assay: Inhibition of human recombinant CA12 catalytic domain by stopped-flow CO2 hydration method

Row | Ki [nM] | SMILES
1 | > 100000 | CCCOc1cc2oc(=O)ccc2cc1C(C)=O [6-acetyl-7-propoxy-2H-chromen-2-one]
2 | 0.98 | CCCOc1ccc2ccc(=O)oc2c1C(C)=O [8-acetyl-7-propoxy-2H-chromen-2-one]
3 | 1 | CCOc1ccc2ccc(=O)oc2c1C(C)=O [8-acetyl-7-ethoxy-2H-chromen-2-one]

More lines, now with the values behind:

Row | SMILES | Ki [nM]
4 | CCOc1ccc2ccc(=O)oc2c1C(=O)CC [7-ethoxy-8-propionyl-2H-chromen-2-one] | 33.2
5 | CC(=O)c1c(OCCC23CC4CC(CC(C4)C2)C3)ccc2ccc(=O)oc12 [8-Acetyl-7-(2-adamantan-1-yl-ethoxy)-chromen-2-one] | 31.5
6 | CC(=O)c1c(OCc2ccccc2)ccc2ccc(=O)oc12 [8-acetyl-7-(benzyloxy)-2H-chromen-2-one] | 22.4
